Columns and labels:
[1] = biological target: Neuropeptide Y receptor type 1 (Homo sapiens) (UniProt P25929); assay: Y1 (h) Eurofins-Cerep binding assay; parameters: ligand concentration 0.025 nM; conditions: filed as agonist, Compound concentration 10.0 uM
[2] = biological target: 5-hydroxytryptamine receptor 2A (Homo sapiens) (UniProt P28223); assay: 5-HT2A (h) Eurofins-Cerep binding assay; parameters: ligand concentration 0.5 nM; conditions: filed as antagonist, Compound concentration 10.0 uM
[3] = tested on: Tyrosine-protein kinase ABL1 (Homo sapiens), P00519 [M351T]; conditions: Compound concentration 1000.0 nM
[4] = biological target: Activin receptor type-1-like (Homo sapiens) (UniProt P37023); conditions: Compound concentration 1000.0 nM
[5] = biological target: Ankyrin repeat and protein kinase domain-containing protein 1 (Homo sapiens) (UniProt Q8NFD2); conditions: Compound concentration 1000.0 nM
[6] = biological target: Bone morphogenetic protein receptor type-2 (Homo sapiens) (UniProt Q13873); conditions: Compound concentration 1000.0 nM
[7] = biological target: Calcium/calmodulin-dependent protein kinase type 1D (Homo sapiens) (UniProt Q8IU85); conditions: Compound concentration 1000.0 nM
[8] = biological target: Calcium/calmodulin-dependent protein kinase type II subunit delta (Homo sapiens) (UniProt Q13557); conditions: Compound concentration 1000.0 nM
[9] = biological target: Peripheral plasma membrane protein CASK (Homo sapiens) (UniProt O14936); conditions: Compound concentration 1000.0 nM
[10] = biological target: Cyclin-dependent kinase 4 (Homo sapiens) (UniProt P11802); conditions: Compound concentration 1000.0 nM
[11] = biological target: Cyclin-dependent kinase-like 3 (Homo sapiens) (UniProt Q8IVW4); conditions: Compound concentration 1000.0 nM
[12] = biological target: Citron Rho-interacting kinase (Homo sapiens) (UniProt O14578); conditions: Compound concentration 1000.0 nM
[13] = biological target: Serine/threonine-protein kinase DCLK2 (Homo sapiens) (UniProt Q8N568); conditions: Compound concentration 1000.0 nM
[14] = biological target: Serine/threonine-protein kinase DCLK3 (Homo sapiens) (UniProt Q9C098); conditions: Compound concentration 1000.0 nM
[15] = biological target: Serine/threonine-protein kinase 17B (Homo sapiens) (UniProt O94768); conditions: Compound concentration 1000.0 nM
[16] = tested on: Epidermal growth factor receptor (Homo sapiens), P00533 [UNDEFINED MUTATION]; conditions: Compound concentration 1000.0 nM
[17] = biological target: Ephrin type-A receptor 4 (Homo sapiens) (UniProt P54764); conditions: Compound concentration 1000.0 nM
[18] = biological target: Serine/threonine-protein kinase/endoribonuclease IRE1 (Homo sapiens) (UniProt O75460); conditions: Compound concentration 1000.0 nM
[19] = biological target: Fibroblast growth factor receptor 4 (Homo sapiens) (UniProt P22455); conditions: Compound concentration 1000.0 nM
[20] = biological target: G protein-coupled receptor kinase 4 (Homo sapiens) (UniProt P32298); conditions: Compound concentration 1000.0 nM
[21] = biological target: Inhibitor of nuclear factor kappa-B kinase subunit beta (Homo sapiens) (UniProt O14920); conditions: Compound concentration 1000.0 nM
[22] = biological target: Tyrosine-protein kinase JAK1 (Homo sapiens) (UniProt P23458); conditions: Compound concentration 1000.0 nM
[23] = biological target: MAP/microtubule affinity-regulating kinase 3 (Homo sapiens) (UniProt P27448); conditions: Compound concentration 1000.0 nM
[24] = biological target: Dual specificity mitogen-activated protein kinase kinase 3 (Homo sapiens) (UniProt P46734); conditions: Compound concentration 1000.0 nM
[25] = tested on: Hepatocyte growth factor receptor (Homo sapiens), P08581 [Y1235D]; conditions: Compound concentration 1000.0 nM
[26] = biological target: Misshapen-like kinase 1 (Homo sapiens) (UniProt Q8N4C8); conditions: Compound concentration 1000.0 nM
[27] = biological target: MAP kinase-interacting serine/threonine-protein kinase 2 (Homo sapiens) (UniProt Q9HBH9); conditions: Compound concentration 1000.0 nM
[28] = biological target: Myosin light chain kinase (Homo sapiens) (UniProt Q32MK0); conditions: Compound concentration 1000.0 nM
[29] = biological target: Mitogen-activated protein kinase kinase kinase 10 (Homo sapiens) (UniProt Q02779); conditions: Compound concentration 1000.0 nM
[30] = biological target: Platelet-derived growth factor receptor alpha (Homo sapiens) (UniProt P16234); conditions: Compound concentration 1000.0 nM
[31] = biological target: Phosphatidylinositol 3-kinase C2 domain-containing subunit gamma (Homo sapiens) (UniProt O75747); conditions: Compound concentration 1000.0 nM
[32] = biological target: Phosphatidylinositol 4,5-bisphosphate 3-kinase catalytic subunit alpha isoform (Homo sapiens) (UniProt P42336); conditions: Compound concentration 1000.0 nM
[33] = biological target: Protein-tyrosine kinase 2-beta (Homo sapiens) (UniProt Q14289); conditions: Compound concentration 1000.0 nM
[34] = biological target: Serine/threonine-protein kinase SIK3 (Homo sapiens) (UniProt Q9Y2K2); conditions: Compound concentration 1000.0 nM
[35] = biological target: Dual serine/threonine and tyrosine protein kinase (Homo sapiens) (UniProt Q6XUX3); conditions: Compound concentration 1000.0 nM
[36] = biological target: Ribosomal protein S6 kinase alpha-3 (Homo sapiens) (UniProt P51812); conditions: Compound concentration 1000.0 nM
[37] = biological target: Ribosomal protein S6 kinase beta-1 (Homo sapiens) (UniProt P23443); conditions: Compound concentration 1000.0 nM
[38] = biological target: SRSF protein kinase 2 (Homo sapiens) (UniProt P78362); conditions: Compound concentration 1000.0 nM
[39] = biological target: Serine/threonine-protein kinase TNNI3K (Homo sapiens) (UniProt Q59H18); conditions: Compound concentration 1000.0 nM
[40] = biological target: High affinity nerve growth factor receptor (Homo sapiens) (UniProt P04629); conditions: Compound concentration 1000.0 nM
[41] = biological target: Serine/threonine-protein kinase ULK2 (Homo sapiens) (UniProt Q8IYT8); conditions: Compound concentration 1000.0 nM
[42] = biological target: Serine/threonine-protein kinase VRK2 (Homo sapiens) (UniProt Q86Y07); conditions: Compound concentration 1000.0 nM
[43] = biological target: Serine/threonine-protein kinase WNK4 (Homo sapiens) (UniProt Q96J92); conditions: Compound concentration 1000.0 nM
[44] = biological target: Tyrosine-protein kinase Yes (Homo sapiens) (UniProt P07947); conditions: Compound concentration 1000.0 nM
[45] = biological target: Mitogen-activated protein kinase kinase kinase 19 (Homo sapiens) (UniProt Q56UN5); conditions: Compound concentration 1000.0 nM

Serine/threonine-protein kinase DCLK2 (Homo sapiens), sequence (Q8N568 whole entry): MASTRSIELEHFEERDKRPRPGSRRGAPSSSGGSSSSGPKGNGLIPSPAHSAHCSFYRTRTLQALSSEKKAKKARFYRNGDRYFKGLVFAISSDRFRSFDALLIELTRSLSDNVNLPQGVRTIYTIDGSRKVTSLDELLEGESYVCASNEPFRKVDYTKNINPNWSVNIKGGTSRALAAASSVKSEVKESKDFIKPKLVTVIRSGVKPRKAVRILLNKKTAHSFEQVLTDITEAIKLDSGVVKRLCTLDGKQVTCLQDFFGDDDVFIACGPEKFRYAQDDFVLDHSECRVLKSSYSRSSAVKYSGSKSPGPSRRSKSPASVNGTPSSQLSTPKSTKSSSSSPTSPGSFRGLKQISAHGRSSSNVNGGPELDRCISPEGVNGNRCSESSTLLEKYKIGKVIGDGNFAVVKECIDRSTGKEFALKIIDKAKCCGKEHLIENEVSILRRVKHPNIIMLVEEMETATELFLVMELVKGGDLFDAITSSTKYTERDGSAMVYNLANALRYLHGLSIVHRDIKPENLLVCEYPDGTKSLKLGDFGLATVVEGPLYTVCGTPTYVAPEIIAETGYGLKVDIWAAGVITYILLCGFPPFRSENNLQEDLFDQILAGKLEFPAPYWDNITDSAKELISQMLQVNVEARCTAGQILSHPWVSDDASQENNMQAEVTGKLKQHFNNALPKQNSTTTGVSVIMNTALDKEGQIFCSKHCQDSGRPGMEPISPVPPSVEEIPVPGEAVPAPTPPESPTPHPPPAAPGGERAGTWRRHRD
Calcium/calmodulin-dependent protein kinase type II subunit delta (Homo sapiens), sequence (Q13557 whole entry): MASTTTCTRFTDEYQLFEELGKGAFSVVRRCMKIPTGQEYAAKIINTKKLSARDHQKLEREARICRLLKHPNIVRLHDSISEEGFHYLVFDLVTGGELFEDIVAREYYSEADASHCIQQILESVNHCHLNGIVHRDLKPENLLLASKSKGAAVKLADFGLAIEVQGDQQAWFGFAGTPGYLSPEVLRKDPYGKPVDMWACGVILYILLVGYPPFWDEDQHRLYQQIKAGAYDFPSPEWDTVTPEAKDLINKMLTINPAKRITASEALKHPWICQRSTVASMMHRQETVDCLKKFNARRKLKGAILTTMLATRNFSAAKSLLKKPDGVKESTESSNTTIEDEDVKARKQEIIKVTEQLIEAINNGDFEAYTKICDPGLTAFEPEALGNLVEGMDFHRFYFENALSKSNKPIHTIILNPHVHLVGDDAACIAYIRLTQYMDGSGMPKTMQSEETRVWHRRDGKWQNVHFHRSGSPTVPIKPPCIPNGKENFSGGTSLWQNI
Serine/threonine-protein kinase TNNI3K (Homo sapiens), sequence (Q59H18 whole entry): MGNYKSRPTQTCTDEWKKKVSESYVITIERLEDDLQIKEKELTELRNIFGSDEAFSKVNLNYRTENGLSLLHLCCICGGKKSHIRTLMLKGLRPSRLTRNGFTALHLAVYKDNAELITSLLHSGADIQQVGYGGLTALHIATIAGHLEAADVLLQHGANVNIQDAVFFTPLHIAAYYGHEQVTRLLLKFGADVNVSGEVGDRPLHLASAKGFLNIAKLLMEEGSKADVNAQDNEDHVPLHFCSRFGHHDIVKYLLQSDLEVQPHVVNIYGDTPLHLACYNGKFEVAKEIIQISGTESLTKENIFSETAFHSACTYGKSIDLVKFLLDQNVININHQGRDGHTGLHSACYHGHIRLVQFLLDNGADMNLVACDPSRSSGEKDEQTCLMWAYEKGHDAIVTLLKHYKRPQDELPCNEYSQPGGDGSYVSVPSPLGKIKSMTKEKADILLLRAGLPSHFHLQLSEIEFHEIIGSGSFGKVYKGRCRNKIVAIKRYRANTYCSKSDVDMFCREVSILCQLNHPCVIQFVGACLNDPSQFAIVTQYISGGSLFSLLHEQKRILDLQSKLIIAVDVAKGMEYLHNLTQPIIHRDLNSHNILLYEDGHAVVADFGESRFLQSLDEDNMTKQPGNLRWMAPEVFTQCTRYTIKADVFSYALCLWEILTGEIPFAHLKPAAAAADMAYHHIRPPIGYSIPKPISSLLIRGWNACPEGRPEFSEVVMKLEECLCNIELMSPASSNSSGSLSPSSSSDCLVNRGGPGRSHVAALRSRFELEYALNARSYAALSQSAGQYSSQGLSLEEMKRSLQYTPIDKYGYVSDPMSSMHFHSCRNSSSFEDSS
G protein-coupled receptor kinase 4 (Homo sapiens), sequence (P32298 whole entry, looked up): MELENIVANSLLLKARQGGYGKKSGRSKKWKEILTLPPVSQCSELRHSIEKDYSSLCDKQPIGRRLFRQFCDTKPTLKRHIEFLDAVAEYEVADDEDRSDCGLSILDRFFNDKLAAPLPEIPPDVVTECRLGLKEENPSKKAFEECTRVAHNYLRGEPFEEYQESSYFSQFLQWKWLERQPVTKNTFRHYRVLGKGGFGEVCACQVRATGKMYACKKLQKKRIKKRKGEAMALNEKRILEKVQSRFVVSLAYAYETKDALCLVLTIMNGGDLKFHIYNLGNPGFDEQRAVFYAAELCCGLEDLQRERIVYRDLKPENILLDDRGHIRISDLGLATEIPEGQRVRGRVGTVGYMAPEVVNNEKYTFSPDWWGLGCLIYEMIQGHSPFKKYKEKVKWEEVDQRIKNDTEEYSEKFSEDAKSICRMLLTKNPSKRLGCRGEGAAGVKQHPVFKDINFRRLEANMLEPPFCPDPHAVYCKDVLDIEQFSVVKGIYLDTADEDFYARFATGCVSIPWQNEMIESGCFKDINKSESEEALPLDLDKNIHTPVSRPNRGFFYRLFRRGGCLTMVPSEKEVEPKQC
Serine/threonine-protein kinase/endoribonuclease IRE1 (Homo sapiens), sequence (O75460 19-977 limits assumed): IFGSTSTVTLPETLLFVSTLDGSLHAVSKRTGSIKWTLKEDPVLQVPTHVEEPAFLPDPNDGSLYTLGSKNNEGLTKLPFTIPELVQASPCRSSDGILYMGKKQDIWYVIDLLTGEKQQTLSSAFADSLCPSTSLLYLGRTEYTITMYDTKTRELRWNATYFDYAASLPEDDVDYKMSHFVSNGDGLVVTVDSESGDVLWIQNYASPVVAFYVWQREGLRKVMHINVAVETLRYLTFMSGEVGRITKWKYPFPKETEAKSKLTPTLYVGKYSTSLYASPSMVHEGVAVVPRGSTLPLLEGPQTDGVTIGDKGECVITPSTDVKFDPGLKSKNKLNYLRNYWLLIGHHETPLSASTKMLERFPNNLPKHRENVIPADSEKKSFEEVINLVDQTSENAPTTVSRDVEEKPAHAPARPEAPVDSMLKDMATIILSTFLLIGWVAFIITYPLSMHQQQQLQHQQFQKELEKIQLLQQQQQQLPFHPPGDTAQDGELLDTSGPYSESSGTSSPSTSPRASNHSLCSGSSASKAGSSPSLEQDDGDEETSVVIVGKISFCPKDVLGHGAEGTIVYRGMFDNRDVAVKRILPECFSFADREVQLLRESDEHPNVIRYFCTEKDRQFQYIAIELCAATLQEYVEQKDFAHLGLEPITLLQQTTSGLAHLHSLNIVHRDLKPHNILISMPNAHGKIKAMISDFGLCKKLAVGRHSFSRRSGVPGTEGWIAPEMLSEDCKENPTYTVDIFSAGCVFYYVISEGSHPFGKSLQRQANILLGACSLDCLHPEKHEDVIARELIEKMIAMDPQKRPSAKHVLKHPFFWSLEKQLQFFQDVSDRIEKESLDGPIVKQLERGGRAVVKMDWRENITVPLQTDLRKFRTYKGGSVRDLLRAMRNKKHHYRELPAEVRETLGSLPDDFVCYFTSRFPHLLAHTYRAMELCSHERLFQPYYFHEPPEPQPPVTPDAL
Serine/threonine-protein kinase ULK2 (Homo sapiens), sequence (Q8IYT8 whole entry): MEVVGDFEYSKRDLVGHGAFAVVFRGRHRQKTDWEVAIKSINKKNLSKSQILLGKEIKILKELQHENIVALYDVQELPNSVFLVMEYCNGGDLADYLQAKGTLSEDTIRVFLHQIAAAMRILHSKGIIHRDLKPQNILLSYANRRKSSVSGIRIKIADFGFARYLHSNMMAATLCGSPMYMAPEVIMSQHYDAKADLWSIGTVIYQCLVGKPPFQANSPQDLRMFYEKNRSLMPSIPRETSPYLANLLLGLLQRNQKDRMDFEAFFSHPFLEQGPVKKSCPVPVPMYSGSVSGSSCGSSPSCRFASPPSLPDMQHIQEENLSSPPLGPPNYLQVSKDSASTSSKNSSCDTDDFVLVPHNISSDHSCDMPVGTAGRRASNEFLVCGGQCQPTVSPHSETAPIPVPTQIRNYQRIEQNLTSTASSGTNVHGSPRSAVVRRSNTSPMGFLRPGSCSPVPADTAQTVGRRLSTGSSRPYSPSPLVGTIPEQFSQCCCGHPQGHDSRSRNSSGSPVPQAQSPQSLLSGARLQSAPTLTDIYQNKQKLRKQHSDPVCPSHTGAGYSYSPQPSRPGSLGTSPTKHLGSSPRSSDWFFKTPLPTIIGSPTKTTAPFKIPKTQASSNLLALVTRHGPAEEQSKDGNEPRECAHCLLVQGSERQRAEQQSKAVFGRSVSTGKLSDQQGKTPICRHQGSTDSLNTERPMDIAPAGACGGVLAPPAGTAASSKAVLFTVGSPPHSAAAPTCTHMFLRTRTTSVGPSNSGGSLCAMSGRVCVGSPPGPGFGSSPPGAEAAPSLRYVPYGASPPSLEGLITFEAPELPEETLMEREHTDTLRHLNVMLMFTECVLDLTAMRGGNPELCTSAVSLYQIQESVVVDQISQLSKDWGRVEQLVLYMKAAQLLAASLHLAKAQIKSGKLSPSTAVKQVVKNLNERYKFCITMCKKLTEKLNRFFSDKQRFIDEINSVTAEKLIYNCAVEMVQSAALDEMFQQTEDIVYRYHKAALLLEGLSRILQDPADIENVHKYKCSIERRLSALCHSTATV
Neuropeptide Y receptor type 1 (Homo sapiens), sequence (P25929 whole entry): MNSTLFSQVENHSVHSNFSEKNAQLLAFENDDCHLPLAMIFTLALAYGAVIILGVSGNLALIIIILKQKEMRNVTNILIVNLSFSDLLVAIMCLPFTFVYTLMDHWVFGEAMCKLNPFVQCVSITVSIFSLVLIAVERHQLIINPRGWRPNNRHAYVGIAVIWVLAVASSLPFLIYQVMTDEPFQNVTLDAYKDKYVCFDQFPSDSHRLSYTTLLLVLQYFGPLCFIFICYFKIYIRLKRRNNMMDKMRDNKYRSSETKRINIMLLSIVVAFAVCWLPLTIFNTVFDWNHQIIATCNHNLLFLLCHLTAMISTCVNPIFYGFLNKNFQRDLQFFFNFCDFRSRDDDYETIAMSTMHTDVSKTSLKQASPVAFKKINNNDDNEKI

CCCOc1ccc([C@H]2[C@H](C(=O)O)[C@@H](c3ccc4c(c3)OCO4)CN2CC(=O)Nc2c(CC)cccc2CC)cc1 [A-192621]
% Inhibition of Control Specific Binding (Mean n=2) [1]: -9.3% | % Inhibition of Control Specific Binding (Mean n=2) [2]: 5.5% | residual activity [3]: 69% | residual activity [4]: 99% | residual activity [5]: 65% | residual activity [6]: 53% | residual activity [7]: 75% | residual activity [8]: 93% | residual activity [9]: 77% | residual activity [10]: 100% | residual activity [11]: 92% | residual activity [12]: 83% | residual activity [13]: 77% | residual activity [14]: 100% | residual activity [15]: 91% | residual activity [16]: 81% | residual activity [17]: 97% | residual activity [18]: 86% | residual activity [19]: 87% | residual activity [20]: 100% | residual activity [21]: 77% | residual activity [22]: 94% | residual activity [23]: 100% | residual activity [24]: 60% | residual activity [25]: 100% | residual activity [26]: 68% | residual activity [27]: 74% | residual activity [28]: 86% | residual activity [29]: 100% | residual activity [30]: 80% | residual activity [31]: 75% | residual activity [32]: 80% | residual activity [33]: 98% | residual activity [34]: 71% | residual activity [35]: 73% | residual activity [36]: 72% | residual activity [37]: 76% | residual activity [38]: 96% | residual activity [39]: 100% | residual activity [40]: 84% | residual activity [41]: 55% | residual activity [42]: 61% | residual activity [43]: 81% | residual activity [44]: 99% | residual activity [45]: 77%

CCCOc1ccc([C@@H]2[C@@H](C(=O)O)[C@H](c3ccc4c(c3)OCO4)CN2CC(=O)Nc2c(CC)cccc2CC)cc1 [A-1806262]
% Inhibition of Control Specific Binding (Mean n=2) [1]: -5.6% | % Inhibition of Control Specific Binding (Mean n=2) [2]: -2.9% | residual activity [3]: 80% | residual activity [4]: 100% | residual activity [5]: 73% | residual activity [6]: 69% | residual activity [7]: 97% | residual activity [8]: 88% | residual activity [9]: 89% | residual activity [10]: 84% | residual activity [11]: 95% | residual activity [12]: 98% | residual activity [13]: 85% | residual activity [14]: 100% | residual activity [15]: 93% | residual activity [16]: 58% | residual activity [17]: 75% | residual activity [18]: 90% | residual activity [19]: 93% | residual activity [20]: 100% | residual activity [21]: 94% | residual activity [22]: 88% | residual activity [23]: 100% | residual activity [24]: 82% | residual activity [25]: 99% | residual activity [26]: 78% | residual activity [27]: 87% | residual activity [28]: 87% | residual activity [29]: 100% | residual activity [30]: 76% | residual activity [31]: 78% | residual activity [32]: 84% | residual activity [33]: 97% | residual activity [34]: 89% | residual activity [35]: 82% | residual activity [36]: 95% | residual activity [37]: 79% | residual activity [38]: 100% | residual activity [39]: 84% | residual activity [40]: 97% | residual activity [41]: 76% | residual activity [42]: 59% | residual activity [43]: 80% | residual activity [44]: 90% | residual activity [45]: 93%
